Structures are written as SMILES. Values after ≈ are worked out from the molar mass of the structure shown. Like-named read-outs stand apart in the source and are kept apart here.

Series [1] is described as follows: Lipophilicity HPLC determination (logk). In kind it is physicochemical. The conditions noted are these: HPLC capacity factor, C18, MeOH 70%/H2O 30%, 30 °C.
In series [2] the test system is Staphylococcus epidermidis. In words: Antibacterial in vitro screening, microdilution broth method. It is filed as cell-based. The conditions noted are these: 80% inhibition of control. Background: Dilution methods test growth across graded concentrations, often in twofold steps.
Series [3] deals with PET in spinach chloroplasts. The experiment in a line: Photosynthetic electron transport (PET) inhibition, DCPIP photoreduction. The settings on record: DCPIP photoreduction. It is filed as biochemical, Spinacia oleracea L. How it is done:
The inhibition of photosynthetic electron transport (PET) in spinach chloroplasts was determined spectrophotometrically (Genesys 6, Thermo Scientific, Madison, WI, USA) using an artificial electron acceptor 2,6-dichlorophenol-indophenol (DCPIP). The rate of photosynthetic electron transport was monitored as a photoreduction of DCPIP. Chloroplasts were prepared from Spinacia oleracea L.. The measurements were carried out in phosphate buffer (0.02 mol/L, pH 7.2) containing sucrose (0.4 mol/L), MgCl2 (0.005 mol/L) and NaCl (0.015 mol/L). The chlorophyll concentration was 30 mg/L and the samples were irradiated (~100 W/m^2 with 10 cm distance) with a halogen lamp (250 W). […] The studied compound were dissolved in DMSO due to their limited water solubility. […] The efficiency of studied compounds was expressed as 50% inhibition concentration relative to the untreated control. The standard for these measurements was DCMU (Diurone®).

Series [4] concerns spectrum of fungi tested (8 fungal strains). In words: Antifungal evaluation, summary over the fungi tested. In kind it is cell-based. How it is done: (§1) Antifungal evaluation was also accomplished with microdilution broth method. On the contrary, there was used RPMI 1640 broth with glutamine as medium and conditions were humid and dark atmosphere, pH 7.0 (adjusted with 0.165 M morpholinepropanesulfonic acid, MOPS) and 35 °C. 8 fungal strains were used (Candida albicans ATCC 44859, Candida tropicalis 156, Candida krusei E28, Candida glabrata 20/I, Trichosporon asahii 1188, Aspergillus fumigatus 231, Lichtheimia corymbifera 272, Trichophyton mentagrophytes 445) together with four antimycotic standards amphotericin B, voriconazole, nystatin and fluconazole.

For series [5], the system named is aromatic amino acids of photosynthetic proteins in spinach chloroplasts. The experiment in a line: Fluorescence emission spectra of aromatic amino acids in chloroplast suspension. Also noted: species or system Spinacia oleracea L. The settings on record: c = 0, 6, 24 and 48 μmol/L; excitation 275 nm; chlorophyll 10 mg/L. The protocol:
The emission fluorescence spectra of aromatic amino acids were recorded on the fluorescence spectrophotometer F-2000 (Hitachi, Tokyo, Japan). The samples of chloroplast suspensions with and without studied inhibitor were excited at wavelength of 275 nm, excitation slit 20 nm and emission slit 10 nm. The samples were kept in the dark for 2 min prior to the measurement. The phosphate buffer used for dilution of the chloroplast suspension was the same as described above. The compounds were added to chloroplast suspension in DMSO solution due to low aqueous solubility. The DMSO concentration in all samples was the same as in the control (10%). The chlorophyll concentration in chloroplast suspension was 10 mg/L.

Series [6] concerns Aspergillus fumigatus 231. The experiment in a line: Antifungal evaluation, microdilution broth method. In kind it is cell-based. The settings on record: Aspergillus fumigatus, 231, AF. How it is done: as §1
Series [7] concerns Candida albicans ATCC 44859. The experiment in a line: Antifungal evaluation, microdilution broth method. It is filed as cell-based. The settings on record: Candida albicans, ATCC44859, CA. The protocol:
as §1

In another series the test system is Candida glabrata 20/I. In words: Antifungal evaluation, microdilution broth method. In kind it is cell-based. The settings on record: Nakaseomyces glabratus, 20/I, CG. The protocol: as §1
A further series concerns Candida krusei E28. The experiment in a line: Antifungal evaluation, microdilution broth method. It is filed as cell-based. The settings on record: Pichia kudriavzevii, E28, CK. How it is done:
as §1

Another series concerns Candida tropicalis 156. In words: Antifungal evaluation, microdilution broth method. It is filed as cell-based. The settings on record: Candida tropicalis, 156, CT. The protocol:
as §1

Series [8] concerns Lichtheimia corymbifera 272. The experiment in a line: Antifungal evaluation, microdilution broth method. In kind it is cell-based. The conditions noted are these: Lichtheimia corymbifera, 272, LC. How it is done:
as §1

Series [9] concerns Trichophyton mentagrophytes 445. The experiment in a line: Antifungal evaluation, microdilution broth method. In kind it is cell-based. The conditions noted are these: Trichophyton mentagrophytes, 445, TM. How it is done: as §1
Another series has as its system Trichosporon asahii 1188. In words: Antifungal evaluation, microdilution broth method. In kind it is cell-based. The settings on record: Trichosporon asahii, 1188, TA. The protocol:
as §1

The test system of series [10] is Mycobacterium tuberculosis H37Rv. The experiment in a line: Antimycobacterial in vitro screening, microdilution broth panel method, Alamar Blue. In kind it is cell-based. The settings on record: 336 h, M. tuberculosis H37Rv, Middlebrook 7H9, 14 days of incubation.
Setting [11] is: fungi tested, less active than the standards, read-out: IC80 antifungal.
The mark [12] stands for this setting: nearly a whole spectrum of fungi tested, after 24 h of incubation, read-out: 80% inhibition of control (IC80), range over fungi.

On to `CCCCCNc1nccnc1C(N)=O` [Compound 5, 3-(Pentylamino)pyrazine-2-carboxamide], for which, in series [1], the logk came to 0.4563. In addition, the IC80 is below 250 µM in series [2] and at least 250 µM in series [4] (setting [11]). In series [3], this compound came in with an IC50 of 38.6 µM.

Compound `CCCCCCNc1nccnc1C(N)=O` [Compound 7, 3-(Hexylamino)pyrazine-2-carboxamide] showed a logk in [1] of 0.6860. For the same compound, the values for the IC80 in series [2] and in series [4] (setting [11]) were below 250 µM and at least 250 µM, respectively. The compound further gave an IC50 in series [3] of 32.9 µM. In [5], the “Quenching of aromatic amino acid fluorescence at 334 nm” value was “increased with increasing concentration”.

On to `NC(=O)c1nccnc1NC1CCCCC1` [Compound 12, 3-(Cyclohexylamino)pyrazine-2-carboxamide], for which the logk in series [1] was 0.4523. In addition, the IC80 in series [6] (24 h) worked out at 15.6 µM; in [6] (48 h) it was 62.5 µM; in series [7] (24 h), 31.2 µM; in [7] (48 h) it was 62.5 µM; in the series on Candida glabrata 20/I (24 h) it was 15.6 µM; in the series with Candida glabrata 20/I (48 h) it was 31.2 µM. The IC80 in the series with Candida krusei E28 (24 h) amounted to 15.6 µM; in the series with Candida krusei E28 (48 h), 62.5 µM; in the series with Candida tropicalis 156 (24 h), 125 µM; in the series on Candida tropicalis 156 (48 h), 500 µM; in [8] (24 h), 250 µM; in series [8] (48 h), 500 µM. The IC80 is 15.6 µM in [9] (72 h); 15.6 µM in [9] (120 h); 31.2 µM in the series with Trichosporon asahii 1188 (24 h); 250 µM in the series on Trichosporon asahii 1188 (48 h); 15.6 to 31.2 µM in [4] (setting [12]). Also, in [3], the IC50 turned out to be 83 µM.

Turning to `NC(=O)c1nccnc1NC1CCCCCC1` [Compound 13, 3-(Cycloheptylamino)pyrazine-2-carboxamide], the logk in series [1] turned out to be 0.6575. The concentration for an effect of 80% (IC80) in series [2] was below 250 µM; in [6] (24 h) it was 7.81 µM; in series [6] (48 h) it was 7.81 µM; in series [7] (24 h), 15.6 µM; in [7] (48 h), 31.2 µM; in the series on Candida glabrata 20/I (24 h) it was 7.81 µM. Further, the IC80 in the series on Candida glabrata 20/I (48 h) was found to be 15.6 µM; in the series with Candida krusei E28 (24 h), 7.81 µM; in the series on Candida krusei E28 (48 h), 31.2 µM; in the series with Candida tropicalis 156 (24 h), 62.5 µM; in the series on Candida tropicalis 156 (48 h), 500 µM; in series [8] (24 h), 62.5 µM. The IC80 is 250 µM in series [8] (48 h); 15.6 µM in series [9] (72 h); 15.6 µM in series [9] (120 h); 31.2 µM in the series on Trichosporon asahii 1188 (24 h); 125 µM in the series with Trichosporon asahii 1188 (48 h); 7.81 to 31.2 µM in series [4] (setting [12]). In series [3], this compound registered a half-maximal inhibitory concentration (IC50) of 19.3 µM.

`NNC(=O)c1ccncc1` [isoniazid] registered an MIC in series [10] of 0.39 µg/mL (≈ 2.84 µM).

Take `NC(=O)c1cnccn1` [pyrazinamide]: the MIC in [10] amounted to 12.5 µg/mL (≈ 102 µM).

As a reminder, the IC80 is the concentration needed for an effect of 80%. By IC50 is commonly meant the point on the concentration scale where inhibition reaches its midpoint. Low values mean higher potency, high ones lower potency. Usually MIC stands for the least concentration at which growth counts as inhibited. High values mean a need for much substance, low ones inhibition by little substance.

(Values after article PMC6271988, “New Potentially Active Pyrazinamide Derivatives Synthesized Under Microwave Conditions” (Molecules, 2014).)
